Experimental data as given in paper PMC9228152, “New Amino Naphthoquinone Derivatives as Anti-Trypanosoma cruzi Agents Targeting Trypanothione Reductase” (Pharmaceutics, 2022).
Like-named read-outs stand apart in the source and are kept apart here.

What was measured:
[1] = test system: T. cruzi epimastigotes, INC-5 strain; assay: Growth inhibition of T. cruzi epimastigotes, INC-5 strain; format: cell-based, Trypanosoma cruzi; conditions: Trypanosoma cruzi, 120 h, read-out: Epi INC-5 IC50
Method: (§1) Epimastigotes from T. cruzi strains NINOA and INC-5 were cultured in BHI (brain heart infusion broth, 89%) axenic medium, as reported in [26], at an initial concentration of 1 × 10^6 parasites/mL, at 28 °C, supplemented with 10% foetal bovine serum and 1% sodium penicillin-streptomycin. […] On the last day, the absorbance of the cultures was measured and related to the control. All measurements were carried out in triplicate. No toxic effect was attributable to DMSO. Since parasite growth is exponential, the data were analysed according to a first order equation, and the respective growth constant (k), corresponding to the slope, was calculated for controls and parasites treated with different drug concentrations. From these measurements, percentage growth inhibition (%GI) and half-maximal inhibitory concentration (IC50) values were calculated.

[2] = test system: T. cruzi epimastigotes, NINOA strain; assay: Growth inhibition of T. cruzi epimastigotes, NINOA strain; format: cell-based; conditions: Trypanosoma cruzi, 120 h, read-out: Epi NINOA IC50
Method: as §1

[3] = test system: T. cruzi trypomastigotes, INC-5 strain; assay: microbe, parasite or virus in culture; format: cell-based; conditions: Trypanosoma cruzi, read-out: Trypo INC-5 LC50 (half-maximal lytic concentration)
Method: (§2) Those compounds with the lowest IC50 values in the epimastigote studies of each strain were evaluated in trypomastigotes. For this purpose, bloodstream trypomastigotes of INC-5 and NINOA strains were used for peritoneal injection into 6−8-week-old CD1 mice. The peak of parasitemia was achieved after 4–6 weeks, at which time parasitised blood samples were obtained by cardiac puncture using sodium heparin as an anticoagulant and diluted to a concentration of 1 × 10^6 trypomastigotes/mL. 10 µL of each of the dilutions of the study compounds and Bzn, with these being placed in a 96-well plate, and 90 µL of infected blood was added, providing a final volume of 100 µL per well. The microplates were incubated at 4 °C for 24 h, and concentrations of 20 µM, 10 µM, and 5 µM of each compound were considered in these experiments. Each evaluation was performed in triplicate. Wells with untreated blood trypomastigotes were used as a negative lysis control and Bzn as a positive control. Then, the degree of lysis of trypomastigotes was determined by their reduction in number using an optical microscope according to the Brener–Pizzi method. For this purpose, 5 μL of blood was placed between a slide and a 13 × 13 coverslip. Mobile trypomastigotes were counted in 15 microscope fields at 40× magnification. Quantification of the degree of lysis for each case was expressed as a percentage considering the number of viable trypomastigotes with respect to the negative control. The half-maximal lytic concentration (LC50) was determined by linear regression. The experiments were carried out in accordance with the recommendations and approval of the local Ethics and Research Committee (Approval number: ENCB/CEI/078/2020).

[4] = test system: T. cruzi trypomastigotes, NINOA strain; assay: microbe, parasite or virus in culture; format: cell-based; conditions: Trypanosoma cruzi, read-out: Trypo NINOA LC50 (half-maximal lytic concentration)
Method: as §2

J774 murine macrophages = assay: Cytotoxicity on J774 macrophages (MTT); format: cell-based
Method: Cytotoxicity assays for the compounds selected for their trypanocidal activity were performed on J774 macrophage cells using the MTT method. For this purpose, 50,000 cells/well resuspended in RPMI medium and 2% foetal bovine serum were seeded in a 96-well plate and incubated for 24 h at 37 °C. […] After 24 h of incubation, the existing culture medium was replaced in the plate with fresh culture medium along with […] each of the compound dilutions (100 to 1.25 μM) and Bzn to a final volume of 100 µL per well. This plate was then incubated in 5% CO2 for 24 h at 37 °C. The controls used were cells with medium as a positive control and cells without culture medium as a negative control. After the 24 h incubation, the morphology of the macrophages was observed under a microscope and then the culture medium was removed again and the MTT solution (5 mg/mL) was added. After 1 h incubation at 37 °C, the absorbance at 570 nm was recorded on an Elisa Epoch reader. The following formula was used to calculate the % cytotoxicity: %cytotoxicity = (100 − (mean number of cells with treatment/cells without treatment) × 100).

[5] = epimastigotes, INC-5 strain, five days, means of three independent experiments
[6] = epimastigotes, NINOA strain, five days, means of three independent experiments
[7] = bloodstream trypomastigotes, INC-5 strain, 24 h at 4 °C
[8] = bloodstream trypomastigotes, NINOA strain, 24 h at 4 °C
[9] = Mus musculus, J774, 24 h, J774 macrophages, MTT, 24 h, read-out: J774 IC50

O=C1C(Br)=C(N2CCC(N3CCOCC3)CC2)C(=O)c2ccccc21 [Compound 2i, 2-Bromo-3-(4-morpholinopiperidin-1-yl)naphthalene-1,4-dione] showed an IC50 [1, 5] of 1.74 ± 0.02 µM, an IC50 [2, 6] of 10.1 ± 0.05 µM and a melting point of 148 to 149 °C.
For O=C(NC1CCN(C2=C(Cl)C(=O)c3ccccc3C2=O)CC1)c1ccc(CCl)cc1 [Compound 7d, N-(1-(3-chloro-1,4-dioxo-1,4-dihydronaphthalen-2-yl)piperidin-4-yl)-4-(chloromethyl)benzamide], the IC50 [1, 5] was 2.3 ± 0.11 µM, the IC50 [2, 6] was 1.25 ± 0.06 µM and the LC50 [3, 7] was greater than 100 µM. For the same compound, the LC50 [4, 8] was greater than 100 µM.
O=C(NC1CCN(C2=C(Cl)C(=O)c3ccccc3C2=O)CC1)c1cccc(Cl)c1 [Compound 7c, 3-Chloro-N-(1-(3-chloro-1,4-dioxo-1,4-dihydronaphthalen-2-yl)piperidin-4-yl)benzamide] gave an IC50 [1, 5] of 1.14 ± 0.07 µM, an IC50 [2, 6] of 0.52 ± 0.04 µM and an IC50 (J774 murine macrophages; [9]) of roughly 25 µM. It also gave an LC50 [3, 7] greater than 100 µM and an LC50 [4, 8] of 68.4 ± 6.3 µM.
Compound COc1ccc(C(=O)NC2CCN(C3=C(Cl)C(=O)c4ccccc4C3=O)CC2)cc1F [Compound 7h, N-(1-(3-chloro-1,4-dioxo-1,4-dihydronaphthalen-2-yl)piperidin-4-yl)-3-fluoro-4-methoxybenzamide] has an IC50 [1, 5] of 1.35 ± 0.01 µM, an IC50 [2, 6] of 0.84 ± 0.11 µM and an IC50 (J774 murine macrophages; J774 macrophages, MTT, 24 h, read-out: J774 IC50) of 22 µM. It also gave an IC50 (J774 murine macrophages; [9]) of roughly 25 µM, an LC50 [3, 7] of 94.7 ± 5.21 µM and an LC50 [4, 8] of 78.6 ± 3.91 µM.
In the case of O=C1C=C(NCCN2CCOCC2)C(=O)c2ccccc21 [Compound 2a, 2-((2-Morpholinoethyl)amino)naphthalene-1,4-dione], the IC50 [1, 5] is reported as 3.06 ± 0.01 µM, the IC50 [2, 6] is reported as 1.1 ± 0.12 µM and the LC50 [3, 7] is reported as greater than 100 µM. The LC50 [4, 8] was greater than 100 µM.
Work on O=C1C=C(N2CCC(N3CCOCC3)CC2)C(=O)c2ccccc21 [Compound 2g, 2-(4-Morpholinopiperidin-1-yl)naphthalene-1,4-dione] yielded an IC50 [1, 5] of 8.45 ± 0.35 µM, an IC50 [2, 6] of 7.05 ± 0.95 µM and a melting point of 151 to 153 °C.
With O=C1C(Cl)=C(NCCN2CCOCC2)C(=O)c2ccccc21 [Compound 2b, 2-Chloro-3-((2-morpholinoethyl)amino)naphthalene-1,4-dione] the IC50 [1, 5] was 2.98 ± 0.2 µM, the IC50 [2, 6] was 1.1 ± 0.05 µM and the LC50 [3, 7] was greater than 100 µM. The LC50 [4, 8] was greater than 100 µM.
In the case of O=C(NC1CCN(C2=C(Cl)C(=O)c3ccccc3C2=O)CC1)c1cc(F)cc(Cl)c1 [Compound 7g, 3-Chloro-N-(1-(3-chloro-1,4-dioxo-1,4-dihydronaphthalen-2-yl)piperidin-4-yl)-5-fluorobenzamide], the IC50 [1, 5] is reported as 2.57 ± 0.04 µM, the IC50 [2, 6] is reported as 3.55 ± 0.02 µM and the LC50 [3, 7] is reported as greater than 100 µM. For the same compound, the LC50 [4, 8] was greater than 100 µM.
For O=C1C(Br)=C(NCCN2CCOCC2)C(=O)c2ccccc21 [Compound 2c, 2-Bromo-3-((2-morpholinoethyl)amino)naphthalene-1,4-dione], the IC50 [1, 5] was 2.22 ± 0.04 µM, the IC50 [2, 6] was 1.14 ± 0.06 µM and the LC50 [3, 7] was greater than 100 µM. The LC50 [4, 8] was greater than 100 µM.
Work on O=C(NC1CCN(C2=C(Cl)C(=O)c3ccccc3C2=O)CC1)c1ccc([N+](=O)[O-])cc1 [Compound 7b, N-(1-(3-chloro-1,4-dioxo-1,4-dihydronaphthalen-2-yl)piperidin-4-yl)-4-nitrobenzamide] yielded an IC50 [1, 5] of 2.23 ± 0.06 µM, an IC50 [2, 6] of 0.77 ± 0.21 µM and an LC50 [3, 7] greater than 100 µM. It also gave an LC50 [4, 8] of 80.3 ± 4.03 µM.
O=C1C(Cl)=C(N2CCN(C3CCCC3)CC2)C(=O)c2ccccc21 [Compound 2e, 2-Chloro-3-(4-cyclopentylpiperazin-1-yl)naphthalene-1,4-dione] gave an IC50 [2, 6] of 0.43 ± 0.15 µM, an LC50 [3, 7] greater than 100 µM and an LC50 [4, 8] greater than 100 µM.
In the case of O=C1C(Cl)=C(N2CCC(N3CCOCC3)CC2)C(=O)c2ccccc21 [Compound 2h, 2-Chloro-3-(4-morpholinopiperidin-1-yl)naphthalene-1,4-dione], the IC50 [1, 5] is reported as 6.6 ± 0.08 µM, the IC50 [2, 6] is reported as 6.4 ± 0.02 µM and the melting point is reported as 145 to 146 °C.
In the case of Cc1cc(C)cc(C(=O)NC2CCN(C3=C(Cl)C(=O)c4ccccc4C3=O)CC2)c1 [Compound 7e, N-(1-(3-chloro-1,4-dioxo-1,4-dihydronaphthalen-2-yl)piperidin-4-yl)-3,5-dimethylbenzamide], the IC50 [1, 5] is reported as 5.6 ± 0.03 µM, the IC50 [2, 6] is reported as 4.45 ± 0.06 µM and the melting point is reported as 206 to 208 °C.
With O=C1C(Cl)=C(N2CCC(NC(=O)c3ccc(C(F)(F)F)cc3[N+](=O)[O-])CC2)C(=O)c2ccccc21 [Compound 7i, N-(1-(3-chloro-1,4-dioxo-1,4-dihydronaphthalen-2-yl)piperidin-4-yl)-2-nitro-4-(trifluoromethyl)benzamide] the IC50 [1, 5] was 3.35 ± 0.05 µM, the IC50 [2, 6] was 1.09 ± 0.01 µM and the LC50 [3, 7] was greater than 100 µM. The LC50 [4, 8] was 90.5 ± 6.58 µM.
For O=C1C(Br)=C(N2CCN(C3CCCC3)CC2)C(=O)c2ccccc21 [Compound 2f, 2-Bromo-3-(4-cyclopentylpiperazin-1-yl)naphthalene-1,4-dione], the IC50 [1, 5] was 1.46 ± 0.03 µM, the IC50 [2, 6] was 1.15 ± 0.09 µM and the LC50 [3, 7] was greater than 100 µM. It also gave an LC50 [4, 8] of 97.9 ± 2.13 µM.
For O=C(NC1CCN(C2=C(Cl)C(=O)c3ccccc3C2=O)CC1)c1cc([N+](=O)[O-])cc([N+](=O)[O-])c1 [Compound 7f, N-(1-(3-chloro-1,4-dioxo-1,4-dihydronaphthalen-2-yl)piperidin-4-yl)-3,5-dinitrobenzamide], the IC50 [1] was 1.84 ± 0.06 µM, the IC50 [2] was 0.99 ± 0.01 µM and the IC50 (J774 murine macrophages; Mus musculus, J774, 24 h, read-out: J774 IC50, J774 macrophages, MTT, 24 h) was roughly 25 µM. It also gave an LC50 ([3]; 24 h) of 98.6 ± 8.2 µM and an LC50 ([4]; 24 h) of 70.9 ± 7.31 µM.
Work on O=C(NC1CCN(C2=C(Cl)C(=O)c3ccccc3C2=O)CC1)c1ccccc1Br [Compound 7a, 2-Bromo-N-(1-(3-chloro-1,4-dioxo-1,4-dihydronaphthalen-2-yl)piperidin-4-yl)benzamide] yielded an IC50 [1, 5] of 2.46 ± 0.08 µM, an IC50 [2, 6] of 6.41 ± 0.02 µM and a melting point of 197 to 198 °C.
With O=C1C=C(N2CCN(C3CCCC3)CC2)C(=O)c2ccccc21 [Compound 2d, 2-(4-Cyclopentylpiperazin-1-yl)naphthalene-1,4-dione] the IC50 [1, 5] was 5.04 ± 0.26 µM, the IC50 [2, 6] was 1.12 ± 0.04 µM and the LC50 [3, 7] was 87.3 ± 5.32 µM. For the same compound, the LC50 [4, 8] was greater than 100 µM.
